Experimental data published in patent US20220054493A1, “INHIBITORS OF NGAL PROTEIN” (INSERM (INSTITUT NATIONAL DE LA SANTÉ ET DE LA RECHERCHE …, priority 2019, published 2022).

Columns and labels:
CKD Mouse Model = experiment: Renal fibrosis in the CKD mouse model (sirius red staining); assay type: in vivo, mice; details: two months administration; FIG. 14 A-B
Method: Chronic kidney disease (CKD) was induced by subtotal nephrectomy (Nx) in eight-weeks-old FVB male mice (25-26 g). All surgeries were performed under ketamine/xylazine anaesthesia. Briefly, the left kidney was exposed, and the upper and lower poles were tied with a poly-glycolic acid suture line. The peritoneum and skin were then sutured, and the animals were returned to their individual cages. After one week of recovery, the second kidney was removed. Removal of the second kidney represents TO. Sham mice were subjected to the same surgical procedures but neither renal poles nor the right kidney were removed. Mice were monitored for any sign of distress, and those observed to be experiencing severe, unrelievable pain were euthanized. Renal failure was assessed by the measure of plasma creatinine and urea with an automatic analyser (Konelab 20i; Thermo Fisher Scientific, Vernon Hills, Ill.) at weeks 4 and 10 post-Nx.

recombinant murine NGAL = molecular target: T1, recombinant murine NGAL (Mus musculus, UniProt P11672); experiment: NGAL-induced profibrotic and proinflammatory gene expression in renal fibroblasts; assay type: cell-based; details: renal fibroblast cells stimulated with recombinant murine NGAL
T1 construct: purchased R&D Systems
T1 sequence (P11672 21-200): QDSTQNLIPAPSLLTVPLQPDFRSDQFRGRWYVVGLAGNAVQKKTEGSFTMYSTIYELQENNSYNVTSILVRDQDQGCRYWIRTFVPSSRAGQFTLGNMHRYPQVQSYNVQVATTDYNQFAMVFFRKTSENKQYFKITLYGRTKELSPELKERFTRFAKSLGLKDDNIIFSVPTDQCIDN
Method: (§1) Cell Culture Human cardiac fibroblasts (primary culture) were obtained from Promocell and maintained in medium (Fibroblast Media 3). Cells were cultured according to the manufacturer's instructions and used between passages 5 and 7. Cells were stimulated with aldosterone (10^-8 M, Sigma) or recombinant hNGAL (500 ng/mL, R&D Systems) for 24 h for protein analysis. Mouse kidney fibroblasts (MKF), were isolated from Wild Type (WT) mice. Briefly, mice 7 to 8 weeks were sacrificed by cervical dislocation and kidneys were cleaned and rinsed in cold DPBS (Dulbecco's Phosphate-Buffered Saline). The renal cortex was minced and incubated in Dulbecco's modified eagle medium/Nutrient mixture F-12 (DMEM/F12, Sigma) containing 1 mg/mL collagenase A (Roche) during 25 minutes at 37° C. The digestion was inactivated by adding culture medium (DMEM/F12+10% FBS) then the cell suspension was passed through a 100-μm cell strainer. After centrifugation, the pellet (containing MKF) was diluted with culture medium then plated in 75 cm^2 culture flask. […]
Frozen tissues (kidneys, heart) were homogenized in TRIzol (Life Technologies, 15596018) using FastPrep beads (MP-Bio, 6913-100). cDNAs were generated using the Superscript II reverse transcriptase kit (Invitrogen, 18064022), and qPCR was performed as previously described. Briefly, transcript levels were analysed in a CFX396 apparatus (Biorad). […]

NGAL [1] = molecular target: T2, NGAL (Homo sapiens, UniProt P80188); experiment: NGAL-induced Col 1 secretion in human cardiac fibroblasts (ELISA); assay type: cell-based; details: FIGS. 1 and 2 panel B
T2 construct: purchased R&D Systems
Method: as §1
NGAL, IL6 and collagen type I concentrations were measured in cardiac tissue and cell supernatants, respectively, by ELISA according to the manufacturer's instructions (R&D Systems).
(§2) The inhibitory activity of the compounds was evaluated on the NGAL-induced IL6 secretion (NGAL 10 ng/ml) in human cardiac fibroblasts. […]

[2] = tested on: Salt-sensitive hypertension; experiment: Salt-sensitive hypertension (L-NAME plus High Salt Diet); assay type: in vivo, mice; details: GP1 100 mg/kg/day in food, 10 days; FIG. 17
Method: Systolic BP was measured by tail-cuff plethysmography in trained conscious mice at weeks 8-10 using a BP2000 Visitech model. BP was measured every day in the same room at the same hour for 5 consecutive days. The BP measurements (expressed as mmHg) presented are the averages of the last 3 days Salt-sensitive hypertension was induced by co-administration of L-NAME 70 mg/l in drinking water together with 8% NaCl in chow food (High Salt Diet, HSD) for 10 days. GP1 (100 mg/kg/day) was added or not into the food. Control experiments included vehicle (control), L-NAME or high salt (HSD) alone. Systolic blood pressure (expressed as mmHg) was estimated in the last 3 days of treatment.

NGAL [3] = molecular target: T2, NGAL; experiment: NGAL-induced profibrotic marker synthesis in human cardiac fibroblasts (western blot); assay type: cell-based; details: FIGS. 1 and 2 panel C
Method: as §1, with “C.” for “C. The digestion was inactivated by adding culture medium (DMEM/F12+10% FBS) then the cell suspension was passed through a 100-μm cell strainer. After centrifugation, the pellet (containing MKF) was diluted with culture medium then plated in 75 cm^2 culture flask.”
Total protein aliquots of 20 μg were prepared from cardiac homogenates and electrophoresed on SDS polyacrylamide gels and transferred to Hybond-c Extra nitrocellulose membranes (Amersham Biosciences). […] After densitometric analyses, optical density values were expressed as arbitrary units. Results are expressed as an n-fold increase over the values of the control group in densitometric arbitrary units.
as §2

T2 sequence (P80188 21-198): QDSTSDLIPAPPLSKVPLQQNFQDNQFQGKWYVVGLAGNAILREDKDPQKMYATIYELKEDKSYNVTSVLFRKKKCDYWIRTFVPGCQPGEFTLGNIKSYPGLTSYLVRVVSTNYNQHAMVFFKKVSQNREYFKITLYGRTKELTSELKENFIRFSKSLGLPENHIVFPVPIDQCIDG

NGAL-induction of inflammatory (IL6, MCP1) gene expression (recombinant murine NGAL; FIG. 16): inhibited | NGAL-induction of profibrotic (Collagen1, fibronectin, aSMA) gene expression (recombinant murine NGAL; FIG. 16A): inhibited | Col 1 secretion (NGAL-induced) (NGAL [1]): inhibited | NGAL-induced profibrotic marker (col1, col III, fibronectin, Gal3, OPN) synthesis (NGAL [3]): inhibited
Structure (SMILES): CC(=O)c1cccc(S(=O)(=O)NCc2ccccc2-n2cccn2)c1 [GPZ614741]
interstitial fibrosis associated to CKD (sirius red staining) (CKD Mouse Model): strong antifibrotic effect | increase of blood pressure induced by the combination of L-NAME and high salt (HSD) [2]: prevented the increase
